# Laboratory results from ChEMBL document CHEMBL5604063, “ASAP - DENV-2 NS2B-NS3 protease fluorescence dose response” (2024).
# “And” between values parts separate entries of the source, which are not always exact repeats. Identical values can stand only once.
# Legend:
# Genome polyprotein [1] = target: T1, Genome polyprotein (dengue virus type 2, UniProt P29990); type: functional, Thailand/16681/1984
# Genome polyprotein [2] = target: T1, Genome polyprotein; type: functional, Thailand/16681/1984; remark: listed apart in the source
# T1 sequence (P29990 1346-1475 limits assumed): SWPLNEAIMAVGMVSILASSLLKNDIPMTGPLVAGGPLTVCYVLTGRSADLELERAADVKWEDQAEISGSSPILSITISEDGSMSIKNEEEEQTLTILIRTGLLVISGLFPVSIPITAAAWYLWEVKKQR
# T1 sequence (P29990 1476-2093 limits assumed): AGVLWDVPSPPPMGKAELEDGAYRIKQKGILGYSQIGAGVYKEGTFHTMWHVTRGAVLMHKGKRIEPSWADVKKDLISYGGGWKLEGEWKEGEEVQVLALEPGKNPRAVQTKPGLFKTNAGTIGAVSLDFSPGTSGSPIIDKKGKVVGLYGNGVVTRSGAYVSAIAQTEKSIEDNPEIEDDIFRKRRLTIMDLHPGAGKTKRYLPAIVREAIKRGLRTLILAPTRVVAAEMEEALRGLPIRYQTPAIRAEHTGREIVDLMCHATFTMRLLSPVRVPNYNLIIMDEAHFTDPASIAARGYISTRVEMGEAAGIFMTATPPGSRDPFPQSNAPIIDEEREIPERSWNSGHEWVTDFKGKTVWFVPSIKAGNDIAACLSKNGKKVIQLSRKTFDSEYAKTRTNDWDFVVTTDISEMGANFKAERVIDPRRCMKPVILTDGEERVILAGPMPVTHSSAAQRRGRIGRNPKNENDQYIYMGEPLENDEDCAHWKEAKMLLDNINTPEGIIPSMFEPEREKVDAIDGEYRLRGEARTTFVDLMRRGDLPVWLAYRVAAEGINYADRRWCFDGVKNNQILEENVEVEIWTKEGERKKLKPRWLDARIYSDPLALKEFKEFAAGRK
Compound,IC50 (Genome polyprotein [1]),IC50 (Genome polyprotein [2])
CC(C)[C@H](NC(=O)c1cc(Cl)cc(NC(=O)OCc2ccccc2)c1)c1nn[nH]n1,> 99.5 µM,61.3 µM and 41.1 µM and 39.5 µM and 56.3 µM and 58.4 µM
Cc1cc(CN)cc(NC(=O)c2cc(C3CC3)n(C)c2C)c1,> 99.5 µM,> 100 µM
O=C(Nc1cc(Cl)cc(C(=O)Nc2ccc([C@H]3CNCCO3)cc2)c1)OCc1ccccc1,> 99.5 µM,> 100 µM
Cn1nc(C(=O)Nc2cccc(CN)c2)cc1C1CC1,> 99.5 µM,> 100 µM
NC[C@H]1C[C@H]1NC(=O)c1cc(Cl)cc(NC(=O)OCc2ccccc2)c1,> 99.5 µM,> 100 µM
CCc1onc(C2CCOCC2)c1C(=O)Nc1cccc(CN)c1,> 99.5 µM,> 100 µM
Cn1cc(C(=O)Nc2cccc(CN)c2)c(-c2cnccn2)n1,> 99.5 µM,> 100 µM
O=C(Nc1cc(Cl)cc(C(=O)Nc2ccc(N3CCNCC3)c(F)c2)c1)OCc1ccccc1,74.1 µM,> 100 µM
N#Cc1cc(Cl)cc(C(=O)Nc2cccc(-c3nnn[nH]3)c2)c1,> 99.5 µM,> 100 µM
O=C(Nc1cc(Cl)cc(C(=O)Nc2cccc(C(=O)O)c2)c1)OCc1ccccc1,42.7 µM,29.1 µM and 25.3 µM
N[C@H]1CCN(c2ccc(NC(=O)c3cc(Cl)cc(NC(=O)OCc4ccccc4)c3)cc2)C1,35.4 µM,> 100 µM
CNC(=O)[C@H](Nc1cccc(CN)c1)c1cc(Cl)cc(NC(=O)OCc2ccccc2)c1,> 99.5 µM,> 100 µM
O=C(Nc1cc(Cl)cc(C(=O)Nc2ccc([C@H]3CCCNC3)cc2)c1)OCc1ccccc1,68.4 µM,> 100 µM
NC[C@H]1C[C@@H]1NC(=O)c1cc(Cl)cc(NC(=O)OCc2ccccc2)c1,> 99.5 µM,> 100 µM
NC1CCN(c2ccc(NC(=O)c3cc(Cl)cc(NC(=O)OCc4ccccc4)c3)cc2)CC1,39.7 µM,> 100 µM
O=C(Nc1cc(Cl)cc(C(=O)Nc2ccc3c(c2)COC3)c1)OCc1ccccc1,> 99.5 µM,> 100 µM
O=C(Nc1cc(Cl)cc(C(=O)Nc2ccc(N3CCCNCC3)cc2)c1)OCc1ccccc1,27.6 µM,> 100 µM
NCc1cccc(NC(=O)[C@H]2CCCN(C(=O)CC3CC3)C2)c1,> 99.5 µM,> 100 µM
NCc1cccc(NC(=O)c2nc(C3CC3)n(-c3ccccc3Cl)n2)c1,> 99.5 µM,> 100 µM
O=C(Nc1cc(Cl)cc(C(=O)Nc2ccc([C@H]3CCNC3)cc2)c1)OCc1ccccc1,19.5 µM and 24.6 µM,39.4 µM
CS(=O)(=O)c1ccc(NC(=O)c2cc(Cl)cc(NC(=O)OCc3ccccc3)c2)cc1,> 99.5 µM,> 100 µM

Compound,IC50 (Genome polyprotein [1]),IC50 (Genome polyprotein [2])
O=C(Nc1cc(Cl)cc(C(=O)Nc2ccc(CC3CCNCC3)cc2)c1)OCc1ccccc1,14 µM and 17.3 µM,33.3 µM
Cc1cc(C(=O)Nc2cccc(CN)c2)c(NC(=O)[C@H]2CCCO2)s1,> 99.5 µM,> 100 µM
NCc1cccc(NC(=O)c2cc(Br)cc(-n3cnnn3)c2)c1,> 99.5 µM,> 100 µM
CNC(=O)C[C@H](Nc1ccccn1)c1cc(Cl)cc(CN)c1,> 99.5 µM,> 100 µM
COc1cc(C(=O)Nc2cccc(CN)c2)cc2cn(C)nc12,> 99.5 µM,> 100 µM
O=C(Nc1cc(Cl)cc(C(=O)Nc2ccc3c(c2)CCNC3)c1)OCc1ccccc1,50 µM and 60.1 µM,> 100 µM
Cc1oc(C(=O)Nc2cccc(CN)c2)cc1COc1ccccc1,> 99.5 µM,> 100 µM
CN(C)[C@H](C(=O)Nc1cccc(CN)c1)c1cc(Cl)cc(Cl)c1,> 99.5 µM,> 100 µM
NCc1cccc(NC(=O)c2cc(Cl)cc(Cl)c2OCc2ccccc2)c1,44.7 µM,42.6 µM
Cn1nc(C(=O)Nc2cccc(CN)c2)c2c1CCS(=O)(=O)C2,> 99.5 µM,> 100 µM
O=C(Nc1cccc(-n2nn[nH]c2=O)c1)c1cc(Cl)cc(N2CCCC2=O)c1,> 99.5 µM,> 100 µM
O=C(Nc1cc(Cl)cc(C(=O)Nc2ccc(C3CNC3)cc2)c1)OCc1ccccc1,39.2 µM,> 100 µM
CC[C@H](Cc1nnn[nH]1)c1ccc(NC(=O)c2cc(Cl)cc3c2CCC3)cc1,83.6 µM,58.8 µM
CC[C@H](Cc1nnn[nH]1)c1ccc(NC(=O)c2cc(Cl)cc(C3CC3)c2)cc1,55.2 µM,28.7 µM and 35.1 µM
Cc1c(C(=O)Nc2cccc(C3CCNCC3)c2)cc(C2CC2)n1C,> 99.5 µM,> 100 µM
O=C(Nc1cc(Cl)cc(C(=O)Nc2ccc3c(c2)C(=O)OC3)c1)OCc1ccccc1,> 99.5 µM,> 100 µM
Cc1c(C(=O)Nc2ccc(CCN)cc2)cc(C2CC2)n1C,> 99.5 µM,> 100 µM
Cc1[nH]c2ccc(Br)cc2c1CC(=O)Nc1cccc(CN)c1,> 99.5 µM,> 100 µM
CC[C@H](Cc1nnn[nH]1)c1ccc(NC(=O)c2cc(Cl)cc(Cl)c2OC)cc1,> 99.5 µM,> 100 µM
O=C(O)Cc1cccc(NC(=O)c2cc(Cl)cc(NC(=O)OCc3ccccc3)c2)c1,74.6 µM,40 µM
NCc1cccc(NC(=O)c2cc(C(F)(F)F)cnc2N2CCOCC2)c1,> 99.5 µM,> 100 µM
